Assay results reported in patent publication US4751026A, “Substituted anilides of oleic, linoleic, or linolenic acid as inhibitors of acyl-coa:cholesterol acyltransferase” (Warner-Lambert Company, priority 1987, dated 1988).

What was measured:
[1] = molecular target: T1, acyl-CoA:cholesterol acyltransferase (ACAT) (Oryctolagus cuniculus, UniProt G1SFD9); test: In vitro inhibition of ACAT: radio-labeled cholesterol oleate formed from radio-labeled oleic acid in rabbit intestinal microsomes; format: biochemical; conditions: inhibition of acylation of cholesterol by oleic acid
T1 construct: in a tissue preparation containing rabbit intestinal microsomes; from tissue; host or cells: rabbit intestine, microsomes
T1 sequence (G1SFD9 1-524): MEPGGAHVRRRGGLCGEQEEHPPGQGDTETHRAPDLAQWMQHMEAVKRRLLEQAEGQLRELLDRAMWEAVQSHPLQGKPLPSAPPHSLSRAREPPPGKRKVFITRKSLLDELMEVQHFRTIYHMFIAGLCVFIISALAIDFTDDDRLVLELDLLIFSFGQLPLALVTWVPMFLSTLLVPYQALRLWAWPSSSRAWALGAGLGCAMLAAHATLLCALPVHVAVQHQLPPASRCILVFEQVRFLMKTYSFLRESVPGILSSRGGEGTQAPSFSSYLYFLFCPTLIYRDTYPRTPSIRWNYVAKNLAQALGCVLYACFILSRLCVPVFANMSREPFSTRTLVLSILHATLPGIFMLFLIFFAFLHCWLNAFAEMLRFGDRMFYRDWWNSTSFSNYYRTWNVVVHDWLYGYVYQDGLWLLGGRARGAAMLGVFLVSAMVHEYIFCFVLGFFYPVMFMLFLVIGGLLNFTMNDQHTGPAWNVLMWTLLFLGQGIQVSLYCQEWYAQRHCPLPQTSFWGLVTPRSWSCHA
Experimental: The ability of representative compounds of the present invention to inhibit ACAT was measured using an in vitro test more fully described in Field, F. J. and Salone, R. G., Biochemica et Biophysica 712: 557-570 (1982). The test assesses the ability of a test compound to inhibit the acylation of cholesterol by oleic acid by measuring the amount of radio-labeled cholesterol oleate formed from radio-labeled oleic acid in a tissue preparation containing rabbit intestinal microsomes.
The data appear in Table 1 where they are expressed as IC50 values; i.e. the concentration of test compound required to inhibit 50% […] of the enzyme.

Serum LDL Cholesterol = test: In vivo serum cholesterol lowering in cholesterol-fed rabbits; set-up: species or system Male, New Zealand white rabbits; conditions: cholesterol-enriched diet, oral 50 mg/kg thirty minutes prior to each meal for seven days, three hours after last meal
Description: Male, New Zealand white rabbits weighing approximately 1 kg were fed a normal diet 40 g per day of rabbit chow (Purina No. 5321, Ralston Purina Co., 711 West Fuesser Road, Mascoutah, Ill., 62224, USA). After six days on this diet, the rabbits were fed 50 g per day for three days of a cholsterol-enriched diet consisting of one part of a cholesterol-containing chow (Purina Catalog No. 841206WLI, 0.25% cholesterol) and two parts of normal chow. Next, the rabbits were fed 60 g per day for four days of a cholsterol-enriched diet consisting of two parts of a cholesterol-containing chow (Purina Catalog No. 814206WLI, 0.25% cholesterol) and one part of normal chow.
After this meal adaptation and cholesterol loading period, the test compounds of this invention were administered to the test animals in oral doses of 50 mg/kg of body weight thirty minutes prior to each meal for seven days. Control animals were administered vehicle only.
The animals were sacrificed three hours after their last meal in the postabsorptive state. Serum cholesterol levels were determined for each animal, and the data appear in Table 2 expressed as percent change in serum cholesterol level compared to control.

Row | Structure (SMILES) | IC50 [1] [nM] | Percent Change in Serum LDL Cholesterol From Control (Serum LDL Cholesterol) [%]
1 | CC/C=C\C/C=C\C/C=C\CCCCCCCC(=O)Nc1c(OC)cc(OC)cc1OC [(Z,Z,Z)-N-(2,4,6-Trimethoxyphenyl)-9,12,15-octadecatrienamide] | 86 | –
2 | CCCCC/C=C\C/C=C\CCCCCCCC(=O)Nc1c(OC)cc(OC)cc1OC [(Z,Z)-N-(2,4,6-Trimethoxyphenyl)-9,12-octadecadienamide] | 42 | –
3 | CCCCCCCC/C=C\CCCCCCCC(=O)Nc1c(OC)cc(OC)cc1OC [(Z)-N-(2,4,6-Trimethoxyphenyl)-9-octadecenamide] | 60 | -53
